Experimental data taken from patent publication US12371428B2 (Exelixis, Inc., priority 2019, dated 2025).

Columns and labels:
[1] = target: Met (phospho-Met, HGF-stimulated PC-3 prostate cancer cells) (Homo sapiens (Human), UniProt P08581); test: Met autophosphorylation ELISA in PC-3 cells (Example F); assay type: cell-based; conditions: cellular activity; Met autophosphorylation ELISA in PC-3 cells; read-out: c-Met IC50
Procedure, shortened: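 PC-3 cells, serum-starved 3 h, were treated with compounds (8-point dose curve, 0.3% DMSO final) for 1 h, then stimulated with 100 ng/mL recombinant human HGF for 10 min. Lysate phospho-Met (panTyr) was quantified by sandwich ELISA; IC50 from 4-parameter logistic fit.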

[2] = target: KDR (phospho-KDR, VEGF165-stimulated HUVEC cells) (Homo sapiens (Human), UniProt P35968); test: KDR autophosphorylation ELISA in HUVEC cells (Example G); assay type: cell-based; conditions: cellular activity; KDR autophosphorylation ELISA in HUVEC cells
Chain of KDR (phospho-KDR, VEGF165-stimulated HUVEC cells) (P35968 20-1356): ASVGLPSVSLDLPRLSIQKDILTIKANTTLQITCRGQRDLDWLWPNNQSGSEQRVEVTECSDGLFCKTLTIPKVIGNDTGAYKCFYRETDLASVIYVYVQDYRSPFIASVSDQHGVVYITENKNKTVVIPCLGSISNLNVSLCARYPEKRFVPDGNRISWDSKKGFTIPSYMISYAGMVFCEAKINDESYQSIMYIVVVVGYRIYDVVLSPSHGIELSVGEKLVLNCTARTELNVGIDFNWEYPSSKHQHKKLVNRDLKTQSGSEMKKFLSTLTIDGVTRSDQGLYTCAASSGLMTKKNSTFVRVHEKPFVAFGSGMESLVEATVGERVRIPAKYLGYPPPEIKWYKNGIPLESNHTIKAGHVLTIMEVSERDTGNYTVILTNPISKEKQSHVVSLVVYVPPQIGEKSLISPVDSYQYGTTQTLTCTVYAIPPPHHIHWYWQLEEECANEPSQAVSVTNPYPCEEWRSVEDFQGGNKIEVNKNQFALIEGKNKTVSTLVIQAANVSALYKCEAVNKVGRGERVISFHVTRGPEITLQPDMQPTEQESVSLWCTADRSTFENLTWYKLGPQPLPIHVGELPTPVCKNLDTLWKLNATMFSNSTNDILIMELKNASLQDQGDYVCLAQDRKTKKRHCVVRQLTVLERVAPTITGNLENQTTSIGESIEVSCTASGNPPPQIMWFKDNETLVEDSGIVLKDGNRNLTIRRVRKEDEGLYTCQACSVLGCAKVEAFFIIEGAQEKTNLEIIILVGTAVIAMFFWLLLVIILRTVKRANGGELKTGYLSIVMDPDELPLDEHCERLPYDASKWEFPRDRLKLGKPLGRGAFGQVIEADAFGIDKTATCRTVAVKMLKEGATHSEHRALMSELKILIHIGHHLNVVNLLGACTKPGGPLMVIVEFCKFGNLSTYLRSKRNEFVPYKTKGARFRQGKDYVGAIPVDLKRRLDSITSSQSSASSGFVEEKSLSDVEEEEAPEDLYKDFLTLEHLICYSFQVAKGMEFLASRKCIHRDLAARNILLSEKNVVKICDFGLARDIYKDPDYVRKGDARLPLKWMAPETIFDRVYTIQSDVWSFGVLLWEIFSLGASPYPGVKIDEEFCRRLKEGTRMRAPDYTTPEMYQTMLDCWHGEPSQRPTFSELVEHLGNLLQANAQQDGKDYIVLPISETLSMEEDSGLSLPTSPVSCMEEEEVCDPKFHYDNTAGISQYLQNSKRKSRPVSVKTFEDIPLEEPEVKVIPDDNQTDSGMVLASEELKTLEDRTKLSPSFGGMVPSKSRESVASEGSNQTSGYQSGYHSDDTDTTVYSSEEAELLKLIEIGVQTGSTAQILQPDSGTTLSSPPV
Procedure, shortened: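 Inhibition of VEGF165-driven KDR autophosphorylation is measured in primary human umbilical vein endothelial cells after 24 h serum deprivation. Compound preincubation lasts 1 h before a 5-minute challenge with 100 ng/mL ligand, and phosphorylated receptor is then measured by ELISA in the lysates.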

[3] = target: Human MET (residues 956-1390) (Homo sapiens (Human), UniProt P08581); test: Human Met kinase assay, HTRF KinEase (Example D-2); assay type: biochemical; conditions: protocol of Example D-2 (other compounds); read-out: c-Met IC50
Chain of Human MET (residues 956-1390) (P08581 956-1390): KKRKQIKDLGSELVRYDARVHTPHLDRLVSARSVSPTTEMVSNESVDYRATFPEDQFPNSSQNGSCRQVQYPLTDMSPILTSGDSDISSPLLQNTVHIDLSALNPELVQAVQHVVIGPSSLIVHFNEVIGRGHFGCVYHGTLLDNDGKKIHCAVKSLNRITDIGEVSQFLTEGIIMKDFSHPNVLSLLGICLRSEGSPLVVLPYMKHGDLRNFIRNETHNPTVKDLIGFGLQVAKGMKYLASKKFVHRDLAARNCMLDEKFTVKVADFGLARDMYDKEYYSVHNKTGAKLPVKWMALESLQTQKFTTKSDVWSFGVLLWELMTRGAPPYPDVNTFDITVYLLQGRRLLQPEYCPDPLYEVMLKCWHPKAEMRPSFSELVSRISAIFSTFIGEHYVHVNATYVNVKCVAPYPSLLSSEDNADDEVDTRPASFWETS
Procedure, shortened: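 IC50 values come from a 4-parameter logistic fit of the […] fluorescence ratio, set between DMSO (100%) and reference compound at 1 μM (0%). Reactions held MET 956-1390 at 0.1 ng/well, ATP at Km, biotinylated peptide, 5 mM MgCl2, 1 mM MnCl2, 1 mM DTT and 3% DMSO, and ran 40 min at room temperature before streptavidin-XL665/Eu-antibody detection.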

Chain of Met (phospho-Met, HGF-stimulated PC-3 prostate cancer cells) (P08581 25-1390): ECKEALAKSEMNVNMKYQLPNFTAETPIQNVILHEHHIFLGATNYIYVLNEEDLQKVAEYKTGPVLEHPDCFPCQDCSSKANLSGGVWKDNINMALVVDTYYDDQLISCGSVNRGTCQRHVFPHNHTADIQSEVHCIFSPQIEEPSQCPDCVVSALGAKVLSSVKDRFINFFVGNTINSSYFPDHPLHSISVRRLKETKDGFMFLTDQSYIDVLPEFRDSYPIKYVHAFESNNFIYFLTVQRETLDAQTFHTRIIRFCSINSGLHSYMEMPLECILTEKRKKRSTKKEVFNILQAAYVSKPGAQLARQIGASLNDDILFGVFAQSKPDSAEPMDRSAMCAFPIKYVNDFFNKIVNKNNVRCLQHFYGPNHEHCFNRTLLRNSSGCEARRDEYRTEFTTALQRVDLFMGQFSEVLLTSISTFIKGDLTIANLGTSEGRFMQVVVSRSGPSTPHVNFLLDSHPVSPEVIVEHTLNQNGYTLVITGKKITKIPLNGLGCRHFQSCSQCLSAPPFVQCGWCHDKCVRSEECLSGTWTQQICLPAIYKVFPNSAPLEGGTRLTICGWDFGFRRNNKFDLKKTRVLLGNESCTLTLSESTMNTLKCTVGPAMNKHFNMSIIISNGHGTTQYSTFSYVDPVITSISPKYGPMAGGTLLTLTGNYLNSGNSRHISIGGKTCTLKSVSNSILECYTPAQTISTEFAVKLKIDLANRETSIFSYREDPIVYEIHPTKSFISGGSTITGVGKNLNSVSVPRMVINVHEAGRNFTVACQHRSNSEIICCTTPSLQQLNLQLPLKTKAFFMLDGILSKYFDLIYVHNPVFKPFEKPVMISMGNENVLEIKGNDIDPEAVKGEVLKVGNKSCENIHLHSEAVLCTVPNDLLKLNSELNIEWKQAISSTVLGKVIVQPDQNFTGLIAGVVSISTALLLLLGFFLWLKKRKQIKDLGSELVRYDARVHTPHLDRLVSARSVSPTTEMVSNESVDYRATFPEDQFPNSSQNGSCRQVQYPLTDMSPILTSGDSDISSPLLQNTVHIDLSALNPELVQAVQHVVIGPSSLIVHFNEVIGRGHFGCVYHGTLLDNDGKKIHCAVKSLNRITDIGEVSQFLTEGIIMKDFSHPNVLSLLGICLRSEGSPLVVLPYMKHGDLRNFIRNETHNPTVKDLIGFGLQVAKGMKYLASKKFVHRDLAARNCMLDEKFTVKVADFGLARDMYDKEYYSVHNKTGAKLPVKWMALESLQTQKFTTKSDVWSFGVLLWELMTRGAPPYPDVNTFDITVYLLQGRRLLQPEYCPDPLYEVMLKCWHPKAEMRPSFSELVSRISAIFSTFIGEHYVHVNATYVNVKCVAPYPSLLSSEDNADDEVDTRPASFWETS

Row | IC50 [1] [µM] | IC50 [2] [µM] | IC50 [3] [µM] | SMILES
1 | < 0.1 | < 0.1 | < 0.1 | COCCOc1nc2c(Oc3ccc(NC(=O)c4cnc(C)c(-c5ccc(F)cc5)c4O)cc3F)ccnc2cc1OC [Compound 68, N-[3-Fluoro-4-[[7-methoxy-6-(2-methoxyethoxy)-1,5-naphthyridin-4-yl]oxy]phenyl]-5-(4-fluorophenyl)-4-hydroxy-6-methylpyridine-3-carboxamide]
2 | < 0.1 | < 0.1 | 0.1 to 0.3 | CCc1cc2nccc(Oc3ccc(NC(=O)c4cnc(C)c(-c5ccc(F)cc5)c4O)cc3F)c2nc1OC [Compound 420, N-[4-[(7-ethyl-6-methoxy-1,5-naphthyridin-4-yl)oxy]-3-fluorophenyl]-5-(4-fluorophenyl)-4-hydroxy-6-methylpyridine-3-carboxamide]
3 | < 0.1 | < 0.1 | < 0.1 | COc1cc2nccc(Oc3ccc(NC(=O)c4cnc(C)c(-c5ccc(F)cc5C)c4O)cc3F)c2nc1OC [Compound 69, N-[4-[(6,7-Dimethoxy-1,5-naphthyridin-4-yl)oxy]-3-fluorophenyl]-5-(4-fluoro-2-methylphenyl)-4-hydroxy-6-methylpyridine-3-carboxamide]
4 | < 0.1 | > 0.3 | < 0.1 | COc1cc2nccc(Oc3ccc(NC(=O)c4cn(C)c(C#N)c(-c5ccc(F)cc5)c4=O)cc3F)c2nc1OC [Compound 77, 6-Cyano-N-[4-[(6,7-dimethoxy-1,5-naphthyridin-4-yl)oxy]-3-fluorophenyl]-5-(4-fluorophenyl)-1-methyl-4-oxopyridine-3-carboxamide]
5 | < 0.1 | < 0.1 | < 0.1 | COCCOc1nc2c(Oc3ccc(NC(=O)c4cnc(C)c(-c5ccc(F)cc5)c4O)cc3)ccnc2cc1C [Compound 437, 5-(4-fluorophenyl)-4-hydroxy-N-[4-[[6-(2-methoxyethoxy)-7-methyl-1,5-naphthyridin-4-yl]oxy]phenyl]-6-methylpyridine-3-carboxamide]
6 | < 0.1 | < 0.1 | < 0.1 | COCCOc1cc2nccc(Oc3ccc(NC(=O)c4c(C)nc(C)c(-c5ccc(F)cc5)c4O)cc3F)c2nc1OC [Compound 432, N-[3-fluoro-4-[[6-methoxy-7-(2-methoxyethoxy)-1,5-naphthyridin-4-yl]oxy]phenyl]-5-(4-fluorophenyl)-4-hydroxy-2,6-dimethylpyridine-3-carboxamide]
7 | < 0.1 | < 0.1 | < 0.1 | COc1cc2nccc(Oc3ccc(NC(=O)c4cn(C)c(CF)c(-c5ccc(F)cc5)c4=O)cc3F)c2nc1OC [Compound 73, N-[4-[(6,7-Dimethoxy-1,5-naphthyridin-4-yl)oxy]-3-fluorophenyl]-6-(fluoromethyl)-5-(4-fluorophenyl)-1-methyl-4-oxopyridine-3-carboxamide]
8 | < 0.1 | > 0.3 | < 0.1 | COc1cc2nccc(Oc3ccc(NC(=O)c4cc(C#N)c(C)n(-c5ccc(F)cc5)c4=O)cc3F)c2nc1OC [Compound 87, 5-Cyano-N-[4-[(6,7-dimethoxy-1,5-naphthyridin-4-yl)oxy]-3-fluorophenyl]-1-(4-fluorophenyl)-6-methyl-2-oxopyridine-3-carboxamide]
9 | < 0.1 | < 0.1 | < 0.1 | COc1cc2nccc(Oc3ccc(NC(=O)c4cnc(C)c(-c5ccc(F)cc5C)c4O)cc3F)c2nc1OC(C)C [Compound 416, N-[3-fluoro-4-[(7-methoxy-6-propan-2-yloxy-1,5-naphthyridin-4-yl)oxy]phenyl]-5-(4-fluoro-2-methylphenyl)-4-hydroxy-6-methylpyridine-3-carboxamide]
10 | < 0.1 | < 0.1 | < 0.1 | COc1cc2nccc(Oc3ccc(NC(=O)c4cnc(C)c(-c5ccc(F)cc5)c4O)cc3F)c2nc1OCCCN1CCOCC1 [Compound 424, N-[3-fluoro-4-[[7-methoxy-6-(3-morpholin-4-ylpropoxy)-1,5-naphthyridin-4-yl]oxy]phenyl]-5-(4-fluorophenyl)-4-hydroxy-6-methylpyridine-3-carboxamide]
11 | < 0.1 | < 0.1 | < 0.1 | COc1cc2nccc(Oc3ccc(NC(=O)c4nn(C)c(C)c(-c5ccc(F)cc5)c4=O)cc3F)c2nc1OC [Compound 92, N-[4-[(6,7-Dimethoxy-1,5-naphthyridin-4-yl)oxy]-3-fluorophenyl]-5-(4-fluorophenyl)-1,6-dimethyl-4-oxopyridazine-3-carboxamide]
12 | < 0.1 | < 0.1 | < 0.1 | COc1cc2nccc(Oc3ccc(NC(=O)c4cnc(C)c(-c5ccc(F)cc5C)c4O)cc3F)c2nc1OCCCN1CCOCC1 [Compound 425, N-[3-fluoro-4-[[7-methoxy-6-(3-morpholin-4-ylpropoxy)-1,5-naphthyridin-4-yl]oxy]phenyl]-5-(4-fluoro-2-methylphenyl)-4-hydroxy-6-methylpyridine-3-carboxamide]
13 | < 0.1 | < 0.1 | 0.1 to 0.3 | COc1ccc2nccc(Oc3ccc(NC(=O)c4ccc(C)n(-c5ccc(F)cc5C)c4=O)cc3F)c2n1 [Compound 85, N-[3-Fluoro-4-[(6-methoxy-1,5-naphthyridin-4-yl)oxy]phenyl]-1-(4-fluoro-2-methylphenyl)-6-methyl-2-oxopyridine-3-carboxamide]
14 | < 0.1 | > 0.3 | < 0.1 | COc1cc2nccc(Oc3ccc(NC(=O)c4cn(-c5cnn(C(F)F)c5)cc(-c5ccc(F)cc5)c4=O)cc3F)c2nc1OC [Compound 60, 1-[1-(Difluoromethyl)pyrazol-4-yl]-N-[4-[(6,7-dimethoxy-1,5-naphthyridin-4-yl)oxy]-3-fluorophenyl]-5-(4-fluorophenyl)-4-oxopyridine-3-carboxamide]
15 | < 0.1 | < 0.1 | < 0.1 | COc1cc2nccc(Oc3ccc(NC(=O)c4n[nH]c(C)c(-c5ccc(F)cc5C)c4=O)cc3F)c2nc1OC [Compound 90, N-[4-[(6,7-Dimethoxy-1,5-naphthyridin-4-yl)oxy]-3-fluorophenyl]-5-(4-fluoro-2-methylphenyl)-6-methyl-4-oxo-1H-pyridazine-3-carboxamide]
16 | < 0.1 | < 0.1 | < 0.1 | COc1ccc2nccc(Oc3ccc(NC(=O)c4c(C)nc(C)c(-c5ccc(F)cc5C)c4O)cc3F)c2n1 [Compound 70, N-[3-Fluoro-4-[(6-methoxy-1,5-naphthyridin-4-yl)oxy]phenyl]-5-(4-fluoro-2-methylphenyl)-4-hydroxy-2,6-dimethylpyridine-3-carboxamide]
17 | < 0.1 | < 0.1 | < 0.1 | CNc1c(-c2ccc(F)cc2)c(=O)c(C(=O)Nc2ccc(Oc3ccnc4cc(OC)c(OC)nc34)c(F)c2)cn1C [Compound 76, N-[4-[(6,7-Dimethoxy-1,5-naphthyridin-4-yl)oxy]-3-fluorophenyl]-5-(4-fluorophenyl)-1-methyl-6-(methylamino)-4-oxopyridine-3-carboxamide]
18 | < 0.1 | > 0.3 | < 0.1 | Cc1cc(F)ccc1-c1c(C)n(C)cc(C(=O)Nc2ccc(Oc3ccnc4cc(C)c(F)nc34)c(F)c2)c1=O [Compound 429, N-[3-fluoro-4-[(6-fluoro-7-methyl-1,5-naphthyridin-4-yl)oxy]phenyl]-5-(4-fluoro-2-methylphenyl)-1,6-dimethyl-4-oxopyridine-3-carboxamide]
19 | < 0.1 | < 0.1 | < 0.1 | COc1cc2nccc(Oc3ccc(NC(=O)c4ncc(C)n(-c5ccc(F)cc5)c4=O)cc3F)c2nc1OC [Compound 93, N-[4-[(6,7-Dimethoxy-1,5-naphthyridin-4-yl)oxy]-3-fluorophenyl]-4-(4-fluorophenyl)-5-methyl-3-oxopyrazine-2-carboxamide]
20 | < 0.1 | 0.1 to 0.3 | < 0.1 | CCn1cc(-c2ccc(F)cc2)c(=O)c(C(=O)Nc2ccc(Oc3ccnc4cc(OC)c(OC)nc34)c(F)c2)c1C [Compound 82, N-[4-[(6,7-Dimethoxy-1,5-naphthyridin-4-yl)oxy]-3-fluorophenyl]-1-ethyl-5-(4-fluorophenyl)-2-methyl-4-oxopyridine-3-carboxamide]
21 | < 0.1 | < 0.1 | < 0.1 | COc1cc2nccc(Oc3ccc(NC(=O)c4c5n(cc(-c6ccc(F)cc6)c4=O)CCC5)cc3F)c2cc1OC [Compound 409, N-[4-(6,7-dimethoxyquinolin-4-yl)oxy-3-fluorophenyl]-6-(4-fluorophenyl)-7-oxo-2,3-dihydro-1H-indolizine-8-carboxamide]
22 | < 0.1 | < 0.1 | < 0.1 | CNC(=O)c1cc2c(Oc3ccc(NC(=O)c4c5n(cc(-c6ccc(F)cc6)c4=O)CCC5)cc3F)ccnc2cc1OC [Compound 408, 4-[2-fluoro-4-[[6-(4-fluorophenyl)-7-oxo-2,3-dihydro-1H-indolizine-8-carbonyl]amino]phenoxy]-7-methoxy-N-methylquinoline-6-carboxamide]
